According to patent publication US20240358693A1, “METHODS OF TREATING PAIN” (Aisa Pharma, Inc., priority 2023, published 2024):

Tested on: participants with SSc-RP
Experiment: Scleroderma Health Assessment Questionnaire (SHAQ): disability indices and visual analog scales
Assay type: in vivo, human
From the text: The standard, validated, patient reported outcome measures tool for SSc patients, the Scleroderma Health Assessment Questionnaire (SHAQ), will be used to assess the participant qualify of life. Details are attached in the Appendix. The participant quality of life will be scored, and a disability index calculated for each questionnaire completed by the patient at Screening and each in-clinic visit. The absolute change in participant quality of life from baseline to the end of each dosing period will be calculated similar to frequency data as before.
The SHAQ includes a Raynaud's VAS, which will be reported at screening and each in-clinic visit. The absolute change in Raynaud-VAS, assessed by the participants response to the SHAQ question ‘In the past 7 days, how much have your Raynaud's interfered with your daily activities?’ at baseline and the end of each dosing period will be calculated similar to frequency data as before.
The SHAQ is used to calculate a Disability Index to assess the participant qualify of life. The eight categories assessed by the Disability Index are 1) dressing and grooming, 2) arising, 3) eating, 4) walking, 5) hygiene, 6) reach, 7) grip, and 8) common daily activities. For each of these categories, patients report the amount of difficulty they have in performing two or three specific activities.
There are four possible responses for the Disability Index questions: • Without any difficulty=0 • With some difficulty=1 • With much difficulty=2 • Unable to do=3. • The highest score reported by the patient for any component question of the eight categories determines the score for that category. • If a component question is left blank or the response is too ambiguous to assign a score, then the score for that category is determined by the remaining completed question(s). • If all component questions are blank or if more than one answer is given, then follow up with the respondent is required. • If the respondent's mark is between the response columns, then move it to the closest one. If it's directly between the two, move it to the higher one.
Each of the disability items on the SHAQ has a companion aids/devices variable that is used to record what type(s) of assistance, if any, the participant uses for his/her usual activities. These variables (see below) are coded as follows: • 0=No assistance is needed. • 1=A special device is used by the patient in his/her usual activities. • 2=The patient usually needs help from another person. • 3=The patient usually needs BOTH a special device AND help from another person.
The scoring variables and scoring rules permit the computation of two disability indices, the Standard Disability Index and the Alternative Disability Index.
This question results in a new set of category scores that are computed by adjusting the score for each category, if necessary, based on the patient's use of an aid or device or assistance for that category. If either devices and/or help from another person are checked for a category, the score is set to “2”, unless the score is already “3” (i.e., scores of “0” or “1” are increased to “2”). For example, if the highest score for the dressing category is “1”, and the patient says they use a device for dressing, the computed category score would be “2”. The sum of the computed categories scores is then calculated and divided by the number of categories answered. This gives a score in the 0 to 3 range.
The aid and device variables are not used to calculate the alternative disability index; it is calculated by adding the scores for each of the categories and dividing by the number of categories answered. This gives a score in the 0 to 3 range.
The standard, validated, patient reported outcome measures tool for SSc patients, the SHAQ, was collected at the time points specified in the study schedules (FIG. 2 and FIGS. 4A and 4B) to assess the participant's quality of life. The SHAQ included a Raynaud's VAS that will also be reported separately.

[1] = Pooled Cilnidipine (N = 7), sensitivity analysis, Modified ITT, Part A
[2] = Pooled Cilnidipine (N = 8), Day 12, PP Population Part A, SSc patients
[3] = Pooled Cilnidipine (N = 8), PP Population Part A, SSc patients
[4] = Pooled Cilnidipine (n = 7), mITT population

## COCCOC(=O)C1=C(C)NC(C)=C(C(=O)OC/C=C/c2ccccc2)C1c1cccc([N+](=O)[O-])c1 (stereo not shown) [Cilnidipine, cilnidipine]
[1]
  SHAQ VAS Breathing Problems: Change from Baseline, Median: 0.000
  SHAQ VAS Breathing Problems: Day 12, Mean: 1.029
  SHAQ VAS Breathing Problems: Day 12, Median: 0.000
  SHAQ VAS Breathing Problems: Percent Change from Baseline, Mean: −8.17%
  SHAQ VAS Breathing Problems: Percent Change from Baseline, Median: −41.33%
  SHAQ VAS Finger Ulcers: Baseline, Mean: 1.171
  SHAQ VAS Finger Ulcers: Baseline, Median: 0.300
  SHAQ VAS Finger Ulcers: Change from Baseline, Mean: −0.643
  SHAQ VAS Finger Ulcers: Change from Baseline, Median: 0.000
  SHAQ VAS Finger Ulcers: Day 12, Mean: 0.529
  SHAQ VAS Finger Ulcers: Day 12, Median: 0.000
  SHAQ VAS Finger Ulcers: Percent Change from Baseline, Mean: −17.08%
  SHAQ VAS Finger Ulcers: Percent Change from Baseline, Median: −50.82%
  SHAQ VAS Intestinal Problems: Baseline, Mean: 2.057
  SHAQ VAS Intestinal Problems: Baseline, Median: 1.000
  SHAQ VAS Intestinal Problems: Change from Baseline, Mean: −0.943
  SHAQ VAS Intestinal Problems: Change from Baseline, Median: 0.000
  SHAQ VAS Intestinal Problems: Day 12, Mean: 1.114
  SHAQ VAS Intestinal Problems: Day 12, Median: 0.600
  SHAQ VAS Intestinal Problems: Percent Change from Baseline, Mean: −32.42%
  SHAQ VAS Intestinal Problems: Percent Change from Baseline, Median: −44.12%
  SHAQ VAS Overall Disease Severity: Baseline, Mean: 2.700
  SHAQ VAS Overall Disease Severity: Baseline, Median: 2.900
  SHAQ VAS Overall Disease Severity: Change from Baseline, Mean: −1.214
  SHAQ VAS Overall Disease Severity: Change from Baseline, Median: −1.500
  SHAQ VAS Overall Disease Severity: Day 12, Mean: 1.486
  SHAQ VAS Overall Disease Severity: Day 12, Median: 1.200
  SHAQ VAS Overall Disease Severity: Percent Change from Baseline, Mean: −59.80%
  SHAQ VAS Overall Disease Severity: Percent Change from Baseline, Median: −55.86%
  SHAQ VAS Pain: Baseline, Mean: 2.057
  SHAQ VAS Pain: Baseline, Median: 1.700
  SHAQ VAS Pain: Change from Baseline, Mean: −0.529
  SHAQ VAS Pain: Change from Baseline, Median: −0.500
  SHAQ VAS Pain: Day 12, Mean: 1.529
  SHAQ VAS Pain: Day 12, Median: 1.000
  SHAQ VAS Pain: Percent Change from Baseline, Mean: −31.22%
  SHAQ VAS Pain: Percent Change from Baseline, Median: −44.98%
  SHAQ VAS Raynaud's: Baseline, Mean: 1.900
  SHAQ VAS Raynaud's: Baseline, Median: 1.100
  SHAQ VAS Raynaud's: Change from Baseline, Mean: −0.357
  SHAQ VAS Raynaud's: Change from Baseline, Median: −0.300
  SHAQ VAS Raynaud's: Day 12, Mean: 1.543
  SHAQ VAS Raynaud's: Day 12, Median: 1.100
  SHAQ VAS Raynaud's: Percent Change from Baseline, Mean: −18.64%
  SHAQ VAS Raynaud's: Percent Change from Baseline, Median: −38.67%
[2]
  SHAQ Standard Disability Index, Change from Baseline, Mean: −0.031
  SHAQ Standard Disability Index, Change from Baseline, Median: 0.000
  SHAQ Standard Disability Index, Percent Change from Baseline, Mean: −16.00%
  SHAQ Standard Disability Index, Percent Change from Baseline, Median: 0.00%
[3]
  SHAQ Standard Disability Index, In-Clinic Visit (Day 12), Mean: 0.469
  SHAQ Standard Disability Index, In-Clinic Visit (Day 12), Median: 0.188
[4]
  SHAQ % change VAS Raynauds: −17%
  SHAQ % change in Alternative Disability Index: −13%
  SHAQ % change in Pain: −31%
  SHAQ % change in Standard Disability Index: −25%
  SHAQ % change overall SSc Disease Severity: −60%
  SHAQ % improvement in Breathing (median): 41%
  SHAQ % improvement in VAS Digital Ulcers: 19%
Pooled cilnidipine (4)
  SHAQ % Δ from baseline, VAS Breathing, mean: −8.2%
  SHAQ % Δ from baseline, VAS Breathing, median: −41.3%
  SHAQ % Δ from baseline, VAS Finger Ulcers, mean: −17.1%
